Measurements from patent US12042481B2, “Use of (1R,5S)-(+)-1-(naphthalen-2-yl)-3-azabicyclo[3.1.0]hexane in the treatment of conditions affected by monoamine neurotransmitters” (priority 2011, dated 2024).
Entries after “also recorded” stand apart in the source; their conditions may differ.

Legend:
[1] = biological target: T1, recombinant human NE transporter (Homo sapiens, UniProt P23975); test: Inhibition of [3H]norepinephrine uptake in MDCK cells transfected with the NE uptake transporter; type: cell-based
T1 construct: host or cells: MDCK
T1 sequence (P23975 whole entry): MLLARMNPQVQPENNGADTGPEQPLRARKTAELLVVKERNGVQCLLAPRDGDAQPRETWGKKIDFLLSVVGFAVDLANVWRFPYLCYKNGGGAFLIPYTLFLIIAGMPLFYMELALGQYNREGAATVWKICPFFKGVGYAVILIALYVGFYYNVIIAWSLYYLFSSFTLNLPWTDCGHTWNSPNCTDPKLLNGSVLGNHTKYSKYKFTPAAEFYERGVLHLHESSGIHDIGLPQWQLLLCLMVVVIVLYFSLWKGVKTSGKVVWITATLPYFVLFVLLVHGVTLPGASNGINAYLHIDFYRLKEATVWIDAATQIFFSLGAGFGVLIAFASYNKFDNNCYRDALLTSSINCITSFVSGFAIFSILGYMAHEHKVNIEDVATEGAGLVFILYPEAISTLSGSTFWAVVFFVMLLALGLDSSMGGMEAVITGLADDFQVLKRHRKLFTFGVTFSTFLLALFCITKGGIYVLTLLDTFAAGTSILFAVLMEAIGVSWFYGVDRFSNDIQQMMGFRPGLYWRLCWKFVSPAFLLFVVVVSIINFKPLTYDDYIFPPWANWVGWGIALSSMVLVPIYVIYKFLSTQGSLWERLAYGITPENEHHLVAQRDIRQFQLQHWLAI
Method: The ability of (1R,5S)-(+)-1-(naphthalen-2-yl)-3-azabicyclo[3.1.0]hexane for inhibiting transport of norepinephrine (NE) and/or dopamine (DA) and/or serotonin (5-HT) was evaluated using cell lines (such as the HEK 293 cell line) that stably express recombinant human NE, DA, and 5-HT transporters, respectively. Techniques for stably transfecting mammalian cell lines with neurotransmitter transporters and measuring the effects of drugs on amine uptake have been described in the literature (e.g., Eshleman A J, J Pharmacol Exp Ther 289:877-885, 1999) and are well known to those skilled in the art
Monoamine uptake was determined in MDCK, CHO-K1, and HEK-293 cell lines respectively transfected with NE, DA, and 5-HT uptake transporters by MDS Pharma Services (Taipei, Taiwan 112, R. O. C.). The cells were incubated in 5 mM Tris-HCl, and 7.5 mM HEPES buffer, pH 7.1, containing 120 mM NaCl, 5.4 mM KCl, 1.2 mM CaCl2, 1.2 mM MgSO4, 5 mM D-glucose, and 1 mM Ascorbic Acid. The cellular homogenates were incubated with radioligands and various concentrations of drugs for 10 minutes at 25° C. The [^3H]-radioligands incorporated into the cells were determined according to published methods using liquid scintillation counting (Perovic and Müller 1995; Eshleman et al., 1999). […]

[2] = test system: male CD-1 (Crl.) derived mice; test: Mouse spontaneous locomotor activity; type: in vivo
Method: For the locomotor activity determination, male CD-1 (Crl.) derived mice were orally administered (1R,5S)-(+)-1-(naphthalen-2-yl)-3-azabicyclo[3.1.0]hexane as described in Example IV. Locomotor activity for mice in groups of 10 was assessed by placing mice individually into custom built chambers in a quiet isolated 22° C. room (conducted by MDS Pharma Services, Taipei, Taiwan 112, R. O. C.). At 15-minute intervals over 2 hours post-dosing, total travel distances (in cm) for individual animals were recorded using the Etho Vision Pro System (Noldus, USA).

[3] = test system: monoamine uptake transporters; test: Microdialysis in rat prefrontal cortex (extracellular NE, DA, 5-HT); type: in vivo
Method: To evaluate the effect of (1R,5S)-(+)-1-(naphthalen-2-yl)-3-azabicyclo[3.1.0]hexane on monoamine uptake transporters in vivo, microdialysis studies were performed in rat brain regions.
Microdialysis studies were conducted using male Wistar rats (250-300 g) bred at the Institute of Pharmacology, the Polish Academy of Sciences, Krakow, Poland. The rats (250-300 g) were housed on a 12 h/12 h light/dark cycle at a constant temperature and humidity, and were provided with food and water ad libitum. The microdialysis procedure has been previously described (Popik et al., 2006). Briefly, the rats were anaesthetized with ketamine (75 mg/kg IM) and xylazine (10 mg/kg IM), placed in a stereotaxic apparatus (David Kopf Instruments, Tujunga, CA, USA) with their skulls exposed. Small holes were drilled in the skull for insertion of the vertical microdialysis probes into the prefrontal cortex and striatum, respectively using the following coordinates: 2.9 mm anterior from the bregma, 0.8 mm lateral from the sagittal suture and −4.5 ventral from the dura surface (prefrontal cortex); 1.8 mm anterior from the bregma, 2.7 mm lateral from the sagittal suture and −7.0 mm ventral from the dura surface (striatum) (Paxinos and Watson, 1998). Microdialysis probes were constructed by inserting two fused silica tubes (30 and 35 mm long, 150 μm o.d.; Polymicro Technologies Inc., Phoenix, AZ, USA) into a microdialysis fiber (220 μm o.d.; AN69, Hospal, Bologna, Italy). The tube assembly was placed in a stainless steel cannula (22 G, 10 mm) forming the shaft of the probe. Portions of the inlet and outlet tubes were individually placed inside polyethylene PE-10 tubing and were glued for protection. The free end of the dialysis fibre was sealed, and 3 mm of the exposed length used for dialysis in prefrontal cortex and 4 mm for striatum. One day after the surgery and probe implantation, the inlet of the dialysis probes was connected to a syringe pump (BAS, IN, USA) which delivered an artificial cerebrospinal fluid (aCSF) composed of [in mM]: NaCl 145, KCl 2.7, MgCl2 1.0, CaCl2 1.2; pH=7.4 at a flow rate of 1.5 μl/min. After a two hour rinsing period to stabilize the extracellular level of neurotransmitters, 3-4 baseline samples were collected in 20 minute sampling periods. Next, (1R,5S)-(+)-1-(naphthalen-2-yl)-3-azabicyclo[3.1.0]hexane (dissolved in 0.9% saline solution) at doses of 10 or 20 mg/kg intraperioneally (i.p.) was administered to the animals at 4 ml/kg and consequent dialysate fractions were collected every 20 min for 3 hrs. At the end of the experiments the rats were sacrificed and their brains were histologically examined to validate the correct probe placement
Dopamine, and serotonin (5-HT) were analysed by HPLC with electrochemical detection. Chromatography was performed using an LC-10 AD pump (Shimadzu Europa GmbH, Warszawa, Poland), an LC-4B amperometric detector with a cross-flow detector cell (BAS, IN, USA) and BDS-Hypersil C18 analytical column (3×100 mm, 3 μm, Thermo Electron Corp., UK). The mobile phase was composed of 0.1 M monochloracetic acid adjusted to pH=3.7 with 3 M sodium hydroxide, 0.5 mM EDTA, 25 mg/L 1-octanesulfonic acid sodium salt, 5.7% methanol, and 2.5% acetonitrile. The flow rate was 0.5 ml/min, and the applied potential of a 3 mm glassy carbon electrode was +600 mV with a sensitivity of 2 nA/V. Norepinephrine was measured using HPLC system equipped with a P580 pump (Dionex, CA, USA) connected to a BAS injection valve with a 10 μI injection loop and a BDS-Hypersil analytical column (2.0×100 mm, a 3 μm, Thermo Electron Corp., UK). The mobile phase was composed of 0.05 M potassium dihydrogen phosphate (adjusted to pH=3.7 with ortho-phosphoric acid), 0.5 mM EDTA, 150 mg/L 1-octanesulfonic acid sodium salt, 10 mM NaCl, and 1.2% acetonitrile. The flow rate was 180 μl/min. NE in the dialysates was detected with a BAS UniJet radial flow detector cell coupled to a LC-4B amperometric detector (BAS, IN, USA). […]

For `c1ccc2cc([C@]34CNC[C@H]3C4)ccc2c1` [(1R,5S)-(+)-1-(naphthalen-2-yl)-3-azabicyclo[3.1.0]hexane], the IC50 [1] was 6 nM, the “locomotor activity (FIG. 5)” value ([2]; 20, 40 mg/kg p.o., 15 minute epochs, p<0.05 versus vehicle) was “decreased locomotor activity at several time points” and the spontaneous locomotor activity ([2]; oral, distance traveled at 15-minute intervals over 2 hours) was “did not significantly increase; also recorded: significantly decrease locomotor activity at several time points”. The “time by which extracellular 5-HT was markedly increased” value [3] was no more than 40 min, the “peak increase of extracellular NE” value ([3]; 10 mg/kg i.p.) was “over 325 % of baseline” and the “peak increase of extracellular NE” value ([3]; 20 mg/kg i.p.) was > 375 % of baseline. The “duration of increase of extracellular DA” value ([3]; 10 and 20 mg/kg i.p.) was “over 3 hours”, the “duration of increase of extracellular NE” value ([3]; 10 and 20 mg/kg i.p.) was “over 3 hours” and the “peak increase of extracellular 5-HT” value ([3]; 10 and 20 mg/kg i.p.) was 300 % of baseline. The “time after administration at which extracellular NE was markedly increased” value ([3]; 10 and 20 mg/kg i.p.) was 40 min, the “time by which extracellular DA was increased” value ([3]; 10 and 20 mg/kg i.p.) was no more than 20 min and the “duration of significant increase of extracellular 5-HT” value ([3]; both doses 10 and 20 mg/kg i.p.) was “over 3 hours”. The “peak increase of extracellular DA” value ([3]; the two doses 10 and 20 mg/kg i.p.) was 240-300 % of baseline.
